Measurements reported in patent publication US7468357B2, “Nucleosides with anti-hepatitis B virus activity” (Emory University, priority 1994, dated 2008).
Several values for one entry are separate records, joined by “and”; a condition that tells them apart may be missing. Equal entries are not always repeated. Where two headings read alike, the source gives them in different places.

Assays:
[1] = Toxicity analysis by uptake of neutral red dye in 2.2.15 cell cultures; settings: human
Experimental: (§1) Toxicity analyses were performed in order to assess whether any observed antiviral effects were due to a general effect on cell viability. The method used was based on the uptake of neutral red dye, a standard and widely used assay for cell viability in a variety of virus-host systems, including HSV (herpes simplex virus) and HIV. The test compounds were used in the form of 40 mM stock solutions in DMSO (frozen on dry ice). Daily aliquots of the test samples were made and frozen at −20° C. so that each individual aliquot would be subjected to a single freeze-thaw cycle. The daily test aliquots were thawed, suspended into culture medium at room temperature and immediately added to the cell cultures. The compounds were tested at 0.01 to 10 μM for antiviral activity. The compounds were tested for toxicity at concentrations from 1 to 300 μM.
(§2) Toxicity analyses were performed in 96-well flat bottomed tissue culture plates. Cells for the toxicity analyses were cultured and treated with test compounds with the same schedule as used for the antiviral evaluations. Each compound was tested at 4 concentrations, each in triplicate cultures. Uptake of neutral red dye was used to determine the relative level of toxicity. The absorbance of internalized dye at […] (A510) was used for the quantitative analysis. Values are presented as a percentage of the average A510 values (± standard deviations) in 9 separate cultures of untreated cells maintained on the same 96-well plate as the test compounds.

Hepatitis B virus [2] = test: Inhibition of HBV replication in transfected HepG-2 (2.2.15) cells (HBV virion DNA and replicative intermediates, blot hybridization); type: cell-based; settings: for Selectivity Index IC50/EC50 RI: cytotoxicity IC50 / RI EC50; for Selectivity Index IC50/EC50 Virion: cytotoxicity IC50 / virion EC50; for Selectivity Index IC50/EC90 RI: cytotoxicity IC50 / RI EC90
Experimental: The assay used herein to evaluate the ability of the disclosed compounds to inhibit the replication of HBV is described in detail in Korba and Gerin, Antiviral Res. 19: 55-70 (1992). […] The toxicity and anti-HBV activity of (−)-β-L-2-hydroxymethyl-5-(5-fluorocytosin-1-yl)-1,3-oxathiolane ((−)-β-L-FTC) and β-D-2′,3′-dideoxycytidine (β-D-ddC) are included as controls. The other compounds disclosed herein can be evaluated similarly.
The antiviral evaluations were performed on two separate passages of cells, two cultures per passage (4 cultures total). All wells, in all plates, were seeded at the same density and at the same time.
(Korba and Gerin, Antiviral Res. 19: 55-70, 1992). The levels of integrated HBV DNA in each cellular DNA preparation (which remain constant on a per cell basis in these experiments) were used to calculate the levels of intracellular HBV DNA forms, thereby eliminating technical variations inherent in the blot hybridization assays.
as §1

[3] = test system: 2.2.15 cells (HepG2 cells transformed with hepatitis virion); test: Toxicity analysis by uptake of neutral red dye in 2.2.15 cell cultures
Experimental: as §1, §2

Hepatitis B virus [4] = settings: previous studies, Korba and Gerin 1992; cited from earlier work
[5] = test system: 2.2.15 cells (HepG2 cells transformed with hepatitis virion); settings: typically observed, Korba and Gerin 1992; read-out: Concentration giving a 2-fold reduction in dye uptake; cited from earlier work
[6] = target: woodchuck hepatitis virus DNA polymerase (Woodchuck hepatitis B virus, UniProt P03160); test: Inhibition of woodchuck hepatitis virus DNA polymerase by triphosphates; type: biochemical; settings: read-out: WHB DNA Pol IC50
human DNA polymerase β = human DNA polymerase β (Homo sapiens, UniProt P06746); test: Inhibition of human DNA polymerase β by triphosphates; type: biochemical; settings: read-out: DNA Pol β Ki
human DNA polymerase α = target: T1, human DNA polymerase α (Homo sapiens, UniProt P09884); test: Inhibition of human DNA polymerase α by triphosphates; type: biochemical; settings: read-out: DNA Pol α Ki
T1 sequence (P09884 1-1462): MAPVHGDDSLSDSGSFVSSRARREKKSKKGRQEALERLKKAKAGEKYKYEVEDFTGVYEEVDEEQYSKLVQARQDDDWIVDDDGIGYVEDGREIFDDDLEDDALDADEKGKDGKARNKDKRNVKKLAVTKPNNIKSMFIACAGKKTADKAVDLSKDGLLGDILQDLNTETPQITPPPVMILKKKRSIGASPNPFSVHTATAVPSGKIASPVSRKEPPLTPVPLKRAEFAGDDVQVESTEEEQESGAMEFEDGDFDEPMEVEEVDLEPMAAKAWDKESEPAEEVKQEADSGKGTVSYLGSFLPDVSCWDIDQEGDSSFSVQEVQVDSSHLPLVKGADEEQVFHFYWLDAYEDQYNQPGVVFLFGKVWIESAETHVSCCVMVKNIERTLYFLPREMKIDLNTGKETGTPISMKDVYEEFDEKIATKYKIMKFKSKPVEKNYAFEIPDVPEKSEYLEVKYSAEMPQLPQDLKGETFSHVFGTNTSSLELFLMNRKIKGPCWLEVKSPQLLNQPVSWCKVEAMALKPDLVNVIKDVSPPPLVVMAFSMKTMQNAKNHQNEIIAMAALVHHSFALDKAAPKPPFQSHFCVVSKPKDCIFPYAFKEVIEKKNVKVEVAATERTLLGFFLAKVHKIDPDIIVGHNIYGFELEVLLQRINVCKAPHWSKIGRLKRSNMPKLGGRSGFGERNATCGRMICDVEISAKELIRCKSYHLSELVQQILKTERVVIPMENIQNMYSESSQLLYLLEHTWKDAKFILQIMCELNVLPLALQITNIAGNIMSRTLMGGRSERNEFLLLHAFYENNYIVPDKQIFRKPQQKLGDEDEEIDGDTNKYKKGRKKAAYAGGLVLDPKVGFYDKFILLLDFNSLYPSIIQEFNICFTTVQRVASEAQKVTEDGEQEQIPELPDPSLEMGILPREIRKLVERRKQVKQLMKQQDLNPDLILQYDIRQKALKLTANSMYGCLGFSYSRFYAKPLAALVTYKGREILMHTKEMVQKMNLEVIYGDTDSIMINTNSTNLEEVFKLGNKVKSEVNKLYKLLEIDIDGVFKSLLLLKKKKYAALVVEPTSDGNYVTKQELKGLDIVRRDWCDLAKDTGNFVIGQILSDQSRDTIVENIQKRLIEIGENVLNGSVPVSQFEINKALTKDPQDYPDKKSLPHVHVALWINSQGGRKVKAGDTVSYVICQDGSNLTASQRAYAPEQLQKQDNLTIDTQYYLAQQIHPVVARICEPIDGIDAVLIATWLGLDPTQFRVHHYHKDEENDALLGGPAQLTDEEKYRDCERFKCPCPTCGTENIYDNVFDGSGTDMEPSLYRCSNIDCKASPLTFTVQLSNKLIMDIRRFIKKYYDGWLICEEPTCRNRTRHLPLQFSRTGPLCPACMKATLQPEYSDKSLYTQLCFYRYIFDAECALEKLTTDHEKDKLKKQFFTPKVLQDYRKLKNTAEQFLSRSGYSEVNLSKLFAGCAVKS

[7] = read-out: Cytotoxicity IC50, Table 2, Hep G-2 (2.2.15) cells
[8] = Table 2, extracellular DNA, transfected Hep G-2 (2.2.15) cells, read-out: HBV Virion EC50
[9] = Table 2, replicative intermediates (intracellular DNA), transfected Hep G-2 (2.2.15) cells, read-out: HBV RI EC50
[10] = read-out: Cytotoxity IC50 ± SD, Table 1, neutral red dye uptake, 2.2.15 cells

Sequence of woodchuck hepatitis virus DNA polymerase (P03160 whole entry): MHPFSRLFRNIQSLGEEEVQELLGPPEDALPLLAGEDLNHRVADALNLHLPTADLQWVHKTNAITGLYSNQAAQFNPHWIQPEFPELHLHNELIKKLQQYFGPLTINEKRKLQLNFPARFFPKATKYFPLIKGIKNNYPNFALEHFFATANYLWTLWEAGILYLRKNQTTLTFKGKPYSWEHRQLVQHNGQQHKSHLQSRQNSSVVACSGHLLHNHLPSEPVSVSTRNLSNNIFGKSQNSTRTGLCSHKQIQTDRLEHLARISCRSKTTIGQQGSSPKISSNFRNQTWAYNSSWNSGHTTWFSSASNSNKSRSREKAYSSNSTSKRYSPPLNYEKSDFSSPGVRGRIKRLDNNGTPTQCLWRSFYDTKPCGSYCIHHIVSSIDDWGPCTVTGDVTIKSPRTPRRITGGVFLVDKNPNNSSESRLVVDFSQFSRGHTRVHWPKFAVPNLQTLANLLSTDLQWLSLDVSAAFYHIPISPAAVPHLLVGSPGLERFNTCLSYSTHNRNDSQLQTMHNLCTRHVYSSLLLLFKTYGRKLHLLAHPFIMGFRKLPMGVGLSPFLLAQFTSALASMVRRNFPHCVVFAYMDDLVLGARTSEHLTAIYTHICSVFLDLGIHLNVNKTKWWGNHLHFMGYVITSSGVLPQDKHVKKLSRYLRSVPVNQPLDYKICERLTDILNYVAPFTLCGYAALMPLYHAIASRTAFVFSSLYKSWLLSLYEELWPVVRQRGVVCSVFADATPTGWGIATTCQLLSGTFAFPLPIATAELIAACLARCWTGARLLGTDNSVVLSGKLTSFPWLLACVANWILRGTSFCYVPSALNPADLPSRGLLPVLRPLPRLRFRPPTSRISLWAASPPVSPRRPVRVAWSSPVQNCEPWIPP

SMILES: Nc1nc(=O)n([C@H]2O[C@@H](CO)C[C@H]2F)cc1F [2′-F-β-L-5FDDC, 1-(2-Fluoro-2,3-dideoxy-β-L-threo-pentofuranosyl)-5-fluorocytosine]
- IC50 [1]: 210 µM
- EC50 (Hepatitis B virus [2]; Hepatitis B virus, HepG2 2.2.15, read-out: HBV RI EC50): 5 µM
- EC50 (Hepatitis B virus [2]; Hepatitis B virus, HepG2 2.2.15, read-out: HBV Virion EC50): 1.7 µM
- Selectivity Index IC50/EC50 RI (Hepatitis B virus [2]; Table 2): 42
- Selectivity Index IC50/EC50 Virion (Hepatitis B virus [2]; Table 2): 124

SMILES: CC(=O)SCCOP(=O)(OCCSC(C)=O)OC[C@@H]1O[C@H](n2cc(C)c(=O)[nH]c2=O)C[C@H]1N=[N+]=[N-] [Bis (Sate) β-L-AZTMP]
- IC50 [3, 7]: 200 µM
- Selectivity Index IC50/EC50 RI (Hepatitis B virus [2]; Table 2): 25
- Selectivity Index IC50/EC50 Virion (Hepatitis B virus [2]; Table 2): 27
- EC50 (Hepatitis B virus [2]; [8]): 7.5 µM
- EC50 (Hepatitis B virus [2]; [9]): 8 µM

SMILES: Nc1ncnc2c1ncn2[C@@H]1CC[C@H](CO)O1 [β-L-ddA]
- IC50 [3, 7]: 250 µM
- Selectivity Index IC50/EC50 RI (Hepatitis B virus [2]; Table 2): 50
- Selectivity Index IC50/EC50 Virion (Hepatitis B virus [2]; Table 2): 50
- EC50 (Hepatitis B virus [2]; [8]): 5 µM
- EC50 (Hepatitis B virus [2]; [9]): 5 µM

SMILES: CC(C)(C)C(=O)SCCOP(=O)(OCCSC(=O)C(C)(C)C)OCC1CCC(n2cnc3c(N)ncnc32)O1 [Bis (Sate) β-L-ddAMP, β-L-2′,3′-Dideoxyadenosin-5′-yl bis (2-pivaloylthioethyl) phosphate]
- IC50 [3, 7]: 200 µM
- Selectivity Index IC50/EC50 RI (Hepatitis B virus [2]; Table 2): 571
- Selectivity Index IC50/EC50 Virion (Hepatitis B virus [2]; Table 2): 445
- EC50 (Hepatitis B virus [2]; [8]): 0.45 µM
- EC50 (Hepatitis B virus [2]; [9]): 0.35 µM

SMILES: Nc1nc(=O)n(C2CSC(CO)O2)cc1F [(−)-β-L-FTC, (−)-β-L-2-hydroxymethyl-5-(5-fluorocytosin-1-yl)-1,3-oxathiolane, reference compound]
- IC50 [3, 10]: 292 ± 13 µM
- Selectivity Index IC50/EC90 RI (Hepatitis B virus [2]; Table 1): 1,622
- Selectivity Index IC50/EC90 Virion (Hepatitis B virus [2]; Table 1, cytotoxicity IC50 / virion EC90): 1,947
- EC50 (Hepatitis B virus [2]; Table 1, extracellular DNA, transfected HEPG-2 (2.2.15) cells, read-out: HBV viron EC50 ± SD): 0.017 ± 0.005 µM
- EC90 (Hepatitis B virus [2]; Table 1, extracellular DNA, transfected HEPG-2 (2.2.15) cells, read-out: HBV viron EC90 ± SD): 0.15 ± 0.02 µM
- EC50 (Hepatitis B virus [2]; Table 1, replicative intermediates (intracellular DNA), transfected HEPG-2 (2.2.15) cells, read-out: HBV RI EC50 ± SD): 0.049 ± 0.008 µM
- EC90 (Hepatitis B virus [2]; Table 1, replicative intermediates (intracellular DNA), transfected HEPG-2 (2.2.15) cells, read-out: HBV RI EC90 ± SD): 0.18 ± 0.03 µM

SMILES: Nc1ccn([C@H]2CC[C@@H](CO)O2)c(=O)n1 [β-D-DDC, β-D-2′,3′-dideoxycytidine, reference compound]
- IC50 [3, 10]: 219 µM
- IC50 ([1]; Cytotoxity IC50 ± SD, Table 1, neutral red dye uptake, 2.2.15 cells): 216 ± 22 µM
- Inhibition of HBV replication (depression of HBV virion DNA and HBV RI), in words (Hepatitis B virus [2]; 2.2.15 cells): significant depressions of HBV DNA replication
- EC90 (Hepatitis B virus [2]; Hepatitis B virus, HepG2 2.2.15, read-out: HBV RI EC90 ± SD, Table 1, replicative intermediates (intracellular DNA), transfected HEPG-2 (2.2.15) cells): 11 ± 2 µM
- EC50 (Hepatitis B virus [2]; Hepatitis B virus, HepG2 2.2.15, read-out: HBV viron EC50 ± SD, Table 1, extracellular DNA, transfected HEPG-2 (2.2.15) cells): 1.5 ± 0.7 µM
- Selectivity Index IC50/EC90 RI (Hepatitis B virus [2]; Table 1): 20 and 18
- EC90 (Hepatitis B virus [2]; read-out: HBV RI EC90 ± SD, Table 1, replicative intermediates (intracellular DNA), transfected HEPG-2 (2.2.15) cells): 12 ± 2.4 µM
- EC50 (Hepatitis B virus [2]; read-out: HBV viron EC50 ± SD, Table 1, extracellular DNA, transfected HEPG-2 (2.2.15) cells): 1.3 µM
- Concentration giving a 90% depression of HBV RI (Hepatitis B virus [4]): 9 to 12 µM
- IC50 [5]: 150 to 190 µM

SMILES: Nc1ncnc2c1ncn2[C@@H]1CC[C@H](COP(=O)(O)OP(=O)(O)OP(=O)(O)O)O1 [β-L-ddATP]
- IC50 [6]: 2.1 µM
- Ki (human DNA polymerase β): > 100 µM
- Ki (human DNA polymerase α): > 100 µM
